Where two headings read alike, the source gives them in different places.
How the values were obtained:
[1] = target: T1, SLC19A2 (Homo sapiens, UniProt O60779); assay: IC50 assays for inhibition of SLC19A2-mediated thiamine uptake; format: cell-based; design: host or cells: HEK293, stably overexpressing SLC19A2 and transiently transfected with a further 500 ng wild-type plasmid; settings: inhibitor 0 to 1 mM, HEK293
T1 sequence (O60779 1-497): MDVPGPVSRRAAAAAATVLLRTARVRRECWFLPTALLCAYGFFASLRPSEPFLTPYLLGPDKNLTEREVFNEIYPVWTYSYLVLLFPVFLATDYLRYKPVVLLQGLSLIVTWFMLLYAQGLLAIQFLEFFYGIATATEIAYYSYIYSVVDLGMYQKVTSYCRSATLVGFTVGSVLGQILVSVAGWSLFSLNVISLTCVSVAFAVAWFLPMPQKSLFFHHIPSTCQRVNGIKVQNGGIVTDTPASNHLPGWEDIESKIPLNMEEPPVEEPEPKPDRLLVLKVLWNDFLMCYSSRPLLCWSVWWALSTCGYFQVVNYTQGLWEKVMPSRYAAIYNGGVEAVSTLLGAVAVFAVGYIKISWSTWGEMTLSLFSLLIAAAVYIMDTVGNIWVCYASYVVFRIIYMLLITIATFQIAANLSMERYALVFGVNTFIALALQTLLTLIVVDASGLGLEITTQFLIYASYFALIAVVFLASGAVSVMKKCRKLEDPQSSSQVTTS
Description: (§1) Plasmids encoding wild-type SLC19A2 and three TRMA-associated variants were generated by Genscript Inc. (Piscataway, USA). Methods for generation of stably overexpressing SLC19A2 cell lines and uptake studies have been previously described ([11], [12]). Inhibition and kinetic studies were performed in SLC19A2-overexpressing stable HEK293 cells transiently transfected with an additional 500 ng of SLC19A2 wild-type plasmid.
(§2) Prescription drugs associated with MA ([2]) in addition to others belonging to listed drug classes (e.g., proton-pump inhibitors; 63 compounds total) were screened in triplicate at 1 mM to evaluate inhibitory activity against SLC19A2. The screen was performed using [^3H]-thiamine (25 nM). Each plate contained control wells exposed for 10 min (within linear range, Supplemental Figure 1) to [^3H]-thiamine (positive control), [^3H]-thiamine plus 1 mM of amprolium (negative control), and [^3H]-thiamine plus 1 mM of screened drug (3 replicates per drug). Methods have been previously described ([11]). SLC19A2 inhibitors were defined as compounds that decreased SLC19A2-mediated thiamine uptake by 50% or more at 1 mM. For compounds that met this definition, inhibition assays were conducted and IC50 values were calculated by nonlinear fitting using GraphPad Prism 7 (La Jolla, CA) ([11]).
Fig. 4 Drug screen and potency studies against SLC19A2-mediated thiamine uptake. In the screen, SLC19A2 inhibitors were defined as compounds that inhibit at least 50% of thiamine uptake compared to the positive control. The positive control was thiamine uptake in the absence of inhibitor. Out of the 63 drugs screened, ten reached that threshold. Of the ten drugs, three (fedratinib, amprolium, and trimethoprim) have IC50 values published in literature (a). […] Figures representative of 3 independent experiments except for pantoprazole

[2] = target: T1, SLC19A2; assay: Predicted risk of SLC19A2-mediated clinical drug-drug interaction (FDA criteria); design: host or cells: HEK293, stably overexpressing SLC19A2 and transiently transfected with a further 500 ng wild-type plasmid; settings: (fu*Cmax)/IC50 > 0.1
From the text: Clinical pharmacokinetic data from human studies ([13]–[18]) and drug monograph databases (e.g., Micromedex, FDA) were used to obtain Cmax (maximum plasma concentration) and fu (fraction of drug unbound in the plasma).

[3] = design: method as in Reference column of Table I (PMIDs, package inserts); settings: maximum plasma concentration, human; ref Table I (PMIDs, package inserts); cited from earlier work
[4] = target: T1, SLC19A2; assay: SLC19A2 inhibitor screen: [3H]-thiamine uptake in SLC19A2-overexpressing HEK293 cells; format: cell-based; design: host or cells: HEK293, stably overexpressing SLC19A2 and transiently transfected with a further 500 ng wild-type plasmid; settings: HEK293, 10 min; for remaining activity at 1000 µM: drug 1 mM, [3H]-thiamine 25 nM, 10 min, HEK293 cells expressing SLC19A2, relative to uptake without inhibitor, read-out: Average % SLC19A2 thiamine uptake; for inhibition at 1000 µM: at 1 mM, read-out: reduction in thiamine transport (designated SLC19A2 inhibitor)
Description: as §1
as §2, with “The screen was performed using [^3H]-thiamine (25 nM).” left out
Fig. 3 Common mechanisms of drug-induced megaloblastic anemia and SLC19A2 inhibitor drug screen workflow. A list of drugs associated with inducing megaloblastic anemia through various mechanisms was compiled (a). Each drug was dissolved to a final concentration of 1 mM in buffer containing radiolabeled [^3H] thiamine and exposed to HEK293 cells expressing SLC19A2 wild-type transporter for 10 min.

[5] = fraction unbound in plasma, human; ref Table I (PMIDs, package inserts); cited from earlier work
[6] = target: human TPK1 (Homo sapiens, UniProt Q9H3S4); assay: TPK1 enzyme assay (AMP-Glo luminescence), substrate test; format: biochemical; settings: 1 mM compound, 15 μg human TPK, 500 μM ATP, 30 min, 37 °C
Description: Methods detailing thiamine pyrophosphokinase 1 (TPK1) enzyme assay development and execution are listed in Supplemental Figure 2 legend.
To determine if the top compounds in the SLC19A2 inhibitor screen (i.e., erythromycin, omeprazole) were substrates of human TPK1, we measured the level of adenosine monophosphate (AMP) generated in a TPK1 enzyme reaction using AMP-Glo™ Assay (Promega).
Luminescence was measured as a proxy for AMP production in human TPK1 reactions exposed to the following compounds: omeprazole 1mM (OME), erythromycin 1mM (ERY), thiamine 1mM (positive control or PC), and no substrate (negative control or NC). Reactions were comprised of 0.5 mL enzyme reaction mixture containing 100 μM MgCl2, 500 μM ATP, pH 7.4, 15 μg of human TPK and 1 mM of tested substrate incubated for 30 min at 37 °C. A negative control reaction was also prepared without added enzyme. Luminescence was measured with a GloMax luminometer (Promega). […] For omeprazole, the signal was not statistically different from the negative control (student’s t-test, p-value = 0.72). Figure representative of 3 independent experiments.

[7] = target: T1, SLC19A2; settings: IC50 published in literature, ref PMID: 27803021; cited from earlier work
[8] = target: T2, wild-type SLC19A2 (Homo sapiens, UniProt O60779); assay: Thiamine transport by wild-type SLC19A2 in transiently transfected HEK293 cells with inhibitor; format: cell-based; settings: 200 μM inhibitor
T2 construct: host or cells: HEK293, transiently transfected
T2 sequence (O60779 1-497): T1 sequence (O60779 1-497)
Description: as §1
Fig. 2 Function and expression of TRMA-associated SLC19A2 variants, and the effects of two prescription drugs on SLC19A2-mediated thiamine uptake. […] Figures representative of 3 separate experiments (a). Membrane localization of GFP-tagged SLC19A2 variants. To determine TRMA variant membrane expression, constructs encoding SLC19A2 wild-type and TRMA variants were GFP-tagged and transfected in HEK293 cells. Nuclei were stained with Hoechst 33342 dye (blue) and cells were visualized with confocal microscopy (b)

Sequence of human TPK1 (Q9H3S4 whole entry): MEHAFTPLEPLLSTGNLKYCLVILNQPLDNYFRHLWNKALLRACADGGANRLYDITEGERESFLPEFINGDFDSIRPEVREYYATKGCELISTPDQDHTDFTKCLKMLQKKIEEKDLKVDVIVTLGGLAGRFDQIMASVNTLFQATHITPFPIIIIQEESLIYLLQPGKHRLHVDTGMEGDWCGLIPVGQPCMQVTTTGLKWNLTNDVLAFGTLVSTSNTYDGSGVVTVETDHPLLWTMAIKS

| Structure (SMILES) | IC50 [1] [µM] | FDA criteria for clinically relevant transporter inhibition, unbound Cmax/IC50 [2] | Cmax [3] [nM] | remaining activity at 1000 µM [4] [%] | inhibition at 1000 µM [4] [%] | fu [5] | Luminescent signal (AMP production) in TPK1 reaction versus negative control [6] | IC50 [7] [µM] | wild-type SLC19A2 thiamine transport activity [8] |
| --- | --- | --- | --- | --- | --- | --- | --- | --- | --- |
| CC[C@H]1OC(=O)[C@H](C)[C@@H](O[C@H]2C[C@@](C)(OC)[C@@H](O)[C@H](C)O2)[C@H](C)[C@@H](O[C@@H]2O[C@H](C)C[C@H](N(C)C)[C@H]2O)[C@](C)(O)C[C@@H](C)C(=O)[C@H](C)[C@@H](O)[C@]1(C)O [Erythromycin] | 20 | met the FDA’s criteria for clinically relevant transporter inhibition | 2300 to 9600 | 29.8 | ≥ 50 | 0.1-0.3 | significantly higher than the negative control signal |  |  |
| COc1c(C)c2c(c(O)c1C/C=C(\C)CCC(=O)OCCN1CCOCC1)C(=O)OC2 [Mycophenolate mofetil] | 145 |  | < 900 | 32.8 | ≥ 50 | 0.03 (label) |  |  |  |
| COc1cc(Cc2cnc(N)nc2N)cc(OC)c1OC [Trimethoprim] |  |  | 3440 | 31.7 | ≥ 50 |  |  | 6.84 | abolished |
| COc1ccnc(C[S+]([O-])c2nc3ccc(OC(F)F)cc3[nH]2)c1OC (stereo not drawn) [Pantoprazole] | 429 |  | 6500 | 46.5 | ≥ 50 | 0.02 (label) |  |  |  |
| CCN(CC)CCCC(C)Nc1ccnc2cc(Cl)ccc12 (stereo not drawn) [Chloroquine] | 301 |  | 3.4 |  |  | 0.36-0.39 |  |  |  |
| CCCc1ncc(C[n+]2ccccc2C)c(N)n1 [Amprolium] |  |  |  | 29.1 | ≥ 50 |  |  |  | abolished |
| COc1ccc2[nH]c([S+]([O-])Cc3ncc(C)c(OC)c3C)nc2c1 (stereo not drawn) [Omeprazole] | 207 |  | 1000 to 10000 | 26.6 | ≥ 50 | 0.05 (label) | statistically similar to the negative control |  |  |
| N=C(N)NC(=O)c1nc(Cl)c(N)nc1N [Amiloride] | 69 |  | 40 | 44.8 | ≥ 50 | 0.77 |  |  |  |
